Each structure is given as a SMILES string. Where only a bound is given, the exact number is not on record here.

These results are taken from patent publication US10668051B2, “Modulators of calcium release-activated calcium channel” (Rhizen Pharmaceuticals SA, priority 2009, dated 2020).

Test [1] concerns IL-5. The experiment in a line: Inhibition of cytokine release in Human Whole Blood: IL-5. Format: cell-based. The conditions noted are these: Phytohemagglutinin, 48 h, ELISA, read-out: IC 50 Human Whole Blood IL-5. As for the experimental part:
(§1) 2. In Vitro Inhibition of Cytokine Release in Jurkat Cells, Human Whole Blood and Peripheral Blood Mononuclear Cells (PBMC).
(§2) Inhibition of cytokine IL-2, IL-4, IL-5 and TNF α was determined as described below. • a. Inhibition of IL-2 in Jurkat cells: Cells were incubated with desired concentrations of the inhibitor for 15 min. Cytokine release was induced by the addition of Concanavalin A (25 μg/ml)+Phorbol Myristate Acetate (50 ng/ml) for IL-2 & TNFα or with Phytohemagglutinin ([…]) for IL-4 & IL-5 and incubated at 37° C. in an atmosphere containing […]. Supernatant was collected after 20 h (IL-2 & TNFα) or 48 h (IL-4 & IL-5) for estimation of cytokines by ELISA. Data were analysed using GraphPad Prism. IC50 values for each compound were determined based on the percent inhibition due to the test compound compared to the control. • b. Inhibition of cytokine release in Human Whole Blood (HWB): Freshly collected HWB was diluted with RPMI medium (1:4.5) and added to a 96-well plate. Wells were incubated with desired concentrations of the inhibitor for 15 min. Cytokine release was induced by the addition of Concanavalin A (25 μg/ml)+Phorbol Myristate Acetate (50 ng/ml) for IL-2 & TNFα or with Phytohemagglutinin (5 μg/ml) for IL-4 & IL-5 and incubated at 37° C. in an atmosphere containing […]. Supernatant was collected after 20 h (IL-2 & TNFα) or 48 h (IL-4 & IL-5) for estimation of cytokines by ELISA. Data were analysed using GraphPad Prism. IC50 values for each compound were determined based on the percent inhibition due to the test compound compared to the control. • c. Inhibition of cytokine release in PBMC: PBMC from freshly collected HWB were isolated by density gradient using Histopaque and seeded in a 96-well plate. Cells were incubated with desired concentrations of the inhibitor for 15 min. Cytokine release was induced by the addition of Concanavalin A (25 μg/ml)+Phorbol Myristate Acetate (50 ng/ml) for IL-2 & TNFα or with Phytohemagglutinin (5 μg/ml) for IL-4 & IL-5 and incubated at 37° C. in an atmosphere containing […]. Supernatant was collected after 20 h (IL-2 & TNFα) or 48 h (IL-4 & IL-5) for estimation of cytokines by ELISA. Data were analysed using GraphPad Prism. IC50 values for each compound were determined based on the percent inhibition due to the test compound compared to the control.

Test [2] addresses CRAC channels (Homo sapiens (Human), UniProt Q96D31). The experiment in a line: In-vitro CRAC channel inhibition assay in Jurkat cells (thapsigargin-induced calcium influx). Format: cell-based. Put shortly: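 Jurkat cells given test compounds in Ca2+/Mg2+-free Hanks buffer for 15 min, then thapsigargin (1 μM final) for 15 min to deplete ER stores. IC50 from percent inhibition of thapsigargin-induced Ca2+ influx.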

Test [3] concerns IL-2. The experiment in a line: Inhibition of cytokine release in Human Whole Blood: IL-2. The conditions noted are these: Con A + PMA, 20 h, ELISA, read-out: IC 50 Human Whole Blood IL-2. Type of test: cell-based. Here is the method: as §1, §2
For orientation: In an ELISA, binding on a coated surface is turned into a signal by an enzyme label.

For test [4], the system named is IL-2. The experiment in a line: Inhibition of cytokine release in PBMC: IL-2. Type of test: cell-based. As to conditions: Homo sapiens, Con A + PMA, 20 h, ELISA, read-out: IC 50 PBMC IL-2. As for the experimental part:
as §1, §2

Test [5] has as its system IL-4. The experiment in a line: Inhibition of cytokine release in Human Whole Blood: IL-4. The conditions noted are these: Phytohemagglutinin, 48 h, ELISA, read-out: IC 50 Human Whole Blood IL-4. Type of test: cell-based. As for the experimental part:
as §1, §2

Test [6] has as its system male DBA/1 Ola HSD mice. The experiment in a line: Collagen-induced arthritis in male DBA/1 Ola HSD mice. Format: in vivo. The conditions noted are these: 10 mg/kg b.wt, daily po, qd. Here is the method: v. Collagen-induced arthritis in male DBA/1 Ola HSD mice: Collagen induced arthritis in rodent models have been widely used to illustrate and understand the development of the disease besides serving as a surrogate for validation of therapeutic targets for human rheumatoid arthritis. Mice were anesthetized with Isoflurane and given 150 μl of Bovine Type II collagen in Freund's complete adjuvant injections (day 0 and day 21). Treatment was initiated on study day 0 and continued once daily, every day (po, qd). Starting on day 18, clinical scores were given daily for each of the paws (right front, left front, right rear, left rear) and continued till the day of sacrifice (day 34). Daily administration of the test compound (Example 69) at 10 mg/kg b.wt alleviated arthritic symptoms, disease progression, and incidence by 30% compared to the control animals.

Test [7] deals with Female Balb/C mice. The experiment in a line: Concanavalin (Con) A induced Hepatitis in Female Balb/C mice. Format: in vivo. The conditions noted are these: 10 mg/kg b.wt, oral, 1 hour prior to Con A; blood after 24 hours. As for the experimental part:
i. Concanavalin (Con) A induced Hepatitis in Female Balb/C mice: Con A is often used to prepare experimental animals with high levels of cytotoxic T-lymphocytes, because these cells are involved in the development of viral infections in humans. In this model, animals were administered test compounds orally 1 hour prior to intravenous administration of Con A. Blood samples were collected after 24 hours for determination of Serum glutamic oxaloacetic transaminase (SGOT) and Serum glutamic pyruvic transaminase (SGPT) in serum. Results indicated >85% reduction in serum SGOT & SGPT upon administration of the test compound (example 69) at 10 mg/kg b.wt.

The test system of test [8] is Guinea Pigs. The experiment in a line: OVA-Induced Asthma in Guinea Pigs. As to conditions: 10 mg/kg b.wt, oral, 1 h before OVA challenge. Format: in vivo. As for the experimental part:
iv. OVA-Induced Asthma in Guinea Pigs: Pulmonary eosinophilia and airway remodelling in conjunction with altered neural control of airway tone and airway epithelial desquamation contributes to Airway Hyper-responsiveness (AHR) in asthma. For determination of eosinophil reduction, animals were sensitized with OVA on d0, d7, and d14 followed by another round (0.1% w/v) through inhalation on d19 & d20. Compounds were administered orally 1 h before OVA challenge (0.3%). BAL fluid was collected on d22 for differential count and cytokine estimation. For determination of change in respiratory parameters, animals were subjected to whole body plethysmography immediately after ova challenge.

The subject of test [9] is CRAC channels over the voltage operated channels (VOC). As to conditions: Yasurio Yonetoky et al.; cited from earlier work.
In test [10] the test system is TNFα. The experiment in a line: Inhibition of cytokine release in Human Whole Blood: TNFα. Type of test: cell-based. As to conditions: Con A + PMA, 20 h, ELISA, read-out: IC 50 Human Whole Blood TNFα. Here is the method: as §1, §2
In test [11] the test system is TNFα. The experiment in a line: Inhibition of cytokine release in PBMC: TNFα. Type of test: cell-based. The conditions noted are these: Homo sapiens, Con A + PMA, 20 h, ELISA, read-out: IC 50 PBMC TNFα. Here is the method: as §1, §2
Test [12] relates to IL-4. The experiment in a line: Inhibition of cytokine release in PBMC: IL-4. The conditions noted are these: Homo sapiens, Phytohemagglutinin, 48 h, ELISA, read-out: IC 50 PBMC IL-4. Type of test: cell-based. Here is the method: as §1, §2
Test [13] has as its system IL-5. The experiment in a line: Inhibition of cytokine release in PBMC: IL-5. Format: cell-based. As to conditions: Homo sapiens, Phytohemagglutinin, 48 h, ELISA, read-out: IC 50 PBMC IL-5. Here is the method:
as §1, §2

Test [14] has as its system IL-2. The experiment in a line: Inhibition of IL-2 in Jurkat cells. As to conditions: Homo sapiens, Con A + PMA, 20 h, ELISA, read-out: IC 50 Jurkat IL-2. Type of test: cell-based. As for the experimental part:
as §1, §2

Sequence of CRAC channels (Q96D31 whole entry): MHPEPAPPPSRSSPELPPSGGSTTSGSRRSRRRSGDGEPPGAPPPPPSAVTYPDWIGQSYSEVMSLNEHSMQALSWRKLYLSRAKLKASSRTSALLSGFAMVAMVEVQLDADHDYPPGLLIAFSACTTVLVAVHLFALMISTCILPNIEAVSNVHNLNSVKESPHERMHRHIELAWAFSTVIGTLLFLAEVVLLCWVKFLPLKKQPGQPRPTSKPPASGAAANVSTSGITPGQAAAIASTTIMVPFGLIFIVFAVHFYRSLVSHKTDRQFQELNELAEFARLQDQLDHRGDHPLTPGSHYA

As usually defined, the inhibition is the relative decrease from the control value, in per cent. For the compound `O=C(Nc1c(F)cccc1F)c1ccc(-n2nc(C(F)(F)F)cc2C2CC2)c(F)c1` [Example 100, 4-[5-cyclopropyl-3-(trifluoromethyl)-1H-pyrazol-1-yl]-N-(2,6-difluorophenyl)-3-fluorobenzamide], the IC50 in test [1] worked out at 56.4 nM; in [3], 77.8 nM; in [4], 31.4 nM; in test [5], 256 nM. Besides, in test [2], the inhibition at 1 µM came out at 86.7%.

Turning to `Cc1ncc(C(=O)Nc2ccc(-n3nc(C(F)(F)F)cc3C3CC3)cc2)c(C)n1` [Example 69, N-{4-[5-cyclopropyl-3-(trifluoromethyl)-1H-pyrazol-1-yl]phenyl}-2,4-dimethylpyrimidine-5-carboxamide], the “alleviation of arthritic symptoms, disease progression, and incidence compared to the control animals” value in [6] turned out to be 30%. For the same compound, in test [7], the “reduction in serum SGOT” value is given as more than 85% and the “reduction in serum SGPT” value was more than 85%. The “change in respiratory parameters (whole body plethysmography)” value in test [8] is “improvement in respiration”. For the same compound, in test [2], the inhibition at 1 µM is 74.6%.

In the case of `Cc1nnsc1C(=O)Nc1ccc(-n2nc(C(F)(F)F)cc2C(F)(F)F)cc1` [YM-58483], in test [9], the “selective index CRAC channels over VOC” value was 31.

With `O=C(Nc1ccc(-n2nc(C(F)(F)F)cc2C2CC2)nc1)c1c(F)cccc1F` [Example 108, N-{6-[5-cyclopropyl-3-(trifluoromethyl)-1H-pyrazol-1-yl]pyridin-3-yl}-2,6-difluorobenzamide], the IC50 came to 38.4 nM in test [10]; 16.5 nM in test [11]; 19.8 nM in [1]; 138 nM in [3]; 17.5 nM in test [4]; 143 nM in [5]. In addition, the IC50 in test [12] worked out at 55.8 nM; in test [13] it was 20.6 nM. The inhibition at 1 µM in [2] amounted to 96.2%.

Regarding `Cc1ncncc1C(=O)Nc1ccc(-n2nc(C(F)(F)F)cc2C2CC2)c(F)c1` [Example 93, N-{4-[5-cyclopropyl-3-(trifluoromethyl)-1H-pyrazol-1-yl]-3-fluorophenyl}-4-methylpyrimidine-5-carboxamide], the IC50 was found to be 148 nM in test [10]; 66.8 nM in [11]; 173 nM in test [1]; 65.1 nM in test [3]; 52.9 nM in [4]; 142 nM in test [5]. Further, the IC50 was determined as 264 nM in [12], 140 nM in test [13] and 140 nM in test [14]. Besides, in test [2], the inhibition at 1 µM was 90%.
